# Values of other authors in patent US20090226898A1, “Mitochondrial markers of ischemia” (Inverness Medical Switzerland GMBH, priority 2005, published 2009).
# Columns and labels:
# cardiac myocytes = conditions: immediately before ischemia
# [1] = system: human monocytes and formyl peptide receptor-like 1 (FPRL1)-transfected human embryonic kidney 293 cells; conditions: human monocytes and FPRL1-transfected HEK 293 cells
# [2] = system: human monocytes and formyl peptide receptor-like 1 (FPRL1)-transfected human embryonic kidney 293 cells; conditions: human monocytes and FPRL1-transfected HEK 293 cells; remark: listed apart in the source
# [3] = target: T1, FMLP receptor (68-kDa protein) (Homo sapiens, UniProt P21462); conditions: binding to the 68-kDa protein
# T1 sequence (P21462 1-350): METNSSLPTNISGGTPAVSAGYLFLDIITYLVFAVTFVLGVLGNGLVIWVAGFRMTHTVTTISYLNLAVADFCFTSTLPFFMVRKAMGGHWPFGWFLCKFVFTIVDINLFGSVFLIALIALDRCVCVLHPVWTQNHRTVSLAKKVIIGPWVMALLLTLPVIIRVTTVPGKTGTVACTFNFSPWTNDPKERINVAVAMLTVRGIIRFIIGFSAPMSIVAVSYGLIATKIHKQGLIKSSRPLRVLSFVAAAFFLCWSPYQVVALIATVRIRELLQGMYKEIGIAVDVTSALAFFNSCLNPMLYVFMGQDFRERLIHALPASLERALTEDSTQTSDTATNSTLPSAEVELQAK
# FPR-like 2 (FPRL2) = target: T2, FPR-like 2 (FPRL2) (Homo sapiens, UniProt P25089)
# T2 sequence (P25089 1-353): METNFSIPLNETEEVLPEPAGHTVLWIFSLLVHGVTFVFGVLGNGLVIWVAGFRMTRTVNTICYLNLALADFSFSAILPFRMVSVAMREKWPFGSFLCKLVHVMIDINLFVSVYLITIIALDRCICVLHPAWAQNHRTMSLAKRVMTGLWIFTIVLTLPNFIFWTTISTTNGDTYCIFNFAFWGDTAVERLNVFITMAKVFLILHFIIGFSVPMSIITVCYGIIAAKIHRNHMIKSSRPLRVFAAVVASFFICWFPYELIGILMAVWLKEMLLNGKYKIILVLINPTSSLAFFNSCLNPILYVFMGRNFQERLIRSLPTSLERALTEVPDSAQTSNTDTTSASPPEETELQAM
compound,measurement,setting,value
C=C(C)[C@H]1Cc2c(ccc3c2O[C@@H]2COc4cc(OC)c(OC)cc4[C@@H]2C3=O)O1 [rotenone],damage to mitochondria,cardiac myocytes,reduces damage to mitochondria
same,production of ROS,cardiac myocytes; cardiac myocytes,decreases the production of ROS
"LL-37: neutrophil granule- and epithelial cell-derived cathelicidin, from hCAP18 (aa1-37) (LLGDFFRKSKEKIGKEFKRIVQRIKDFLRNLVPRTES; Antibacterial peptide LL-37; UniProt P49913 134-170, looked up)",chemotaxis,[1],chemotactic
same,calcium mobilization,[2],can induce calcium mobilization
RKAMGGHWPFGWFLCKF,inhibition of ligand binding,[3],strongest inhibitor of ligand binding
formyl-Met-Leu-Phe [fMLP],receptor activation,FPR-like 2 (FPRL2),only activated by high (micromolar) concentrations
